How the values were obtained:
[1] = molecular target: T1, human α7β2‐nAChR (Homo sapiens, UniProt P17787+P36544); test: cell-based; settings: SEM
T1 construct: expressed in transfected cells; host or cells: Xenopus laevis oocytes, cRNA injection

[2] = molecular target: T2, human α7‐only‐nAChR (Homo sapiens, UniProt P36544); test: cell-based; settings: SEM
T2 construct: expressed in transfected cells; host or cells: Xenopus laevis oocytes, cRNA injection
T2 sequence (P36544 23-502 limits assumed): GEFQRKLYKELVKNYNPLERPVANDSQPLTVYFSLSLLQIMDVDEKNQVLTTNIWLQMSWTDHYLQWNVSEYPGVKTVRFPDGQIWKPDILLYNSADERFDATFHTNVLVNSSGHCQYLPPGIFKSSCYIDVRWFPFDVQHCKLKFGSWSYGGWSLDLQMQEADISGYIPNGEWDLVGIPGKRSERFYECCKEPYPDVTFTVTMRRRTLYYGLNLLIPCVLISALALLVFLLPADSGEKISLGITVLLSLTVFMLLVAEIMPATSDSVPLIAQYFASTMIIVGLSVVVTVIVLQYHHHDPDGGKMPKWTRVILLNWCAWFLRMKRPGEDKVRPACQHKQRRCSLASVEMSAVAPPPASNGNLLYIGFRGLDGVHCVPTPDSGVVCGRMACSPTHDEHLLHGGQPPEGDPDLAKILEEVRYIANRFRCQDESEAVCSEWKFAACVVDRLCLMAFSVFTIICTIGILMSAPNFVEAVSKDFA

T1 sequence (P36544 23-502 limits assumed): as above
T1 sequence (P17787 26-502 limits assumed): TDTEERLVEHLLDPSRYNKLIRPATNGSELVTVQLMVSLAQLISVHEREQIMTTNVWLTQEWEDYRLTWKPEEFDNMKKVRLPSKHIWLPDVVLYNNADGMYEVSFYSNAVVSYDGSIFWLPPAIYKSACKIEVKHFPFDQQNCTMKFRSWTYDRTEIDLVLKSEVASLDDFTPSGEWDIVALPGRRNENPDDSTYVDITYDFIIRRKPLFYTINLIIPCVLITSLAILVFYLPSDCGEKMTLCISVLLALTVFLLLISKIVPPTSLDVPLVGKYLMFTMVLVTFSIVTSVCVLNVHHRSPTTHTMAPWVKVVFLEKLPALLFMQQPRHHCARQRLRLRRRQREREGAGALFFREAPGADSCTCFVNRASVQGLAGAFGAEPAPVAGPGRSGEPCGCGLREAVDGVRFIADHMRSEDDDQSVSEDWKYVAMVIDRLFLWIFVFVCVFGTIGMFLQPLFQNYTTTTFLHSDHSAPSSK

CC(C)C[C@@H]1NC(=O)[C@H](Cc2ccccc2)NC(=O)[C@@H]2CSSC[C@H](NC(=O)CN)C(=O)N[C@@H](CSSC[C@@H](C(N)=O)NC(=O)[C@H](Cc3ccc(O)cc3)NC(=O)[C@H](CC(=O)O)NC(=O)[C@@H]3CCCN3C(=O)[C@H](CC(N)=O)NC(=O)[C@H](CC(N)=O)NC1=O)C(=O)N[C@@H](CO)C(=O)N[C@@H](Cc1c[nH]cn1)C(=O)N1CCC[C@H]1C(=O)N1CCC[C@H]1C(=O)N2 [α‐CtxPnIC, α‐conotoxin PnIC]
Kd ([1]; K d α7β2): 3.3 ± 0.6 nM | koff ([1]; read-out: k off α7β2): 0.000119 s⁻¹ | kon ([1]; read-out: k on α7β2): 37200 M⁻¹ s⁻¹ | Kd [2]: 1.9 ± 0.4 nM | koff ([2]; read-out: k off α7‐only): 0.000122 s⁻¹ | kon ([2]; read-out: k on α7‐only): 68700 M⁻¹ s⁻¹

— paper PMC10782225 (The FASEB Journal, 2023)
